{"source": "patent US10583154B2", "about": "“Multi-dose compositions containing an antimicrobial polyamide or octenidine preservative” (priority 2016, dated 2020)", "origin": "cited, not measured here", "conditions_in_all_cases": "cited from earlier work", "key": {"Aspergillus niger": {"test_system": "Aspergillus niger"}, "Pseudomonas aeruginosa": {"test_system": "Pseudomonas aeruginosa"}, "Candida albicans": {"test_system": "Candida albicans"}, "Staphylococcus aureus": {"test_system": "Staphylococcus aureus"}, "E. coli": {"test_system": "E. coli"}}, "data": [{"compound": "C[CH2][Hg][S]c1ccccc1C(=O)[O-].[Na+]", "note": "[thimerosal]", "values": [{"measurement": "Minimum Inhibitory Concentration (MIC)", "setting": "Aspergillus niger", "value": 128, "unit": "µg/mL"}, {"measurement": "Minimum Inhibitory Concentration (MIC)", "setting": "Pseudomonas aeruginosa", "value": "4 to 8", "unit": "µg/mL"}, {"measurement": "Minimum Inhibitory Concentration (MIC)", "setting": "Candida albicans", "value": 32, "unit": "µg/mL"}, {"measurement": "Minimum Inhibitory Concentration (MIC)", "setting": "Staphylococcus aureus", "value": 0.2, "unit": "µg/mL"}, {"measurement": "Minimum Inhibitory Concentration (MIC)", "setting": "E. coli", "value": "4 to 8", "unit": "µg/mL"}]}]}
